The values that follow are results of earlier work, collected in article PMC11187573, “Identification of SARS-CoV-2 Mpro inhibitors through deep reinforcement learning for de novo drug design and computational chemistry approaches” (RSC Medicinal Chemistry, 2024).

This series concerns SARS, SARS-CoV-2 and MERS Mpro. Particulars: Origin ChEMBL; ref ChEMBL; cited from earlier work.

As a reminder, the IC50 is the concentration needed to halve the response being measured. On to `O=C(CSc1nccc(-c2csc(-c3ccccc3)n2)n1)Nc1cc(Cl)cc(Cl)c1` [CHEMBL208732, O=C(CSc1nc(-c2csc(-c3ccccc3)n2)ccn1)Nc1cc(Cl)cc(Cl)c1], for which the IC50 was 3 µM.

`O=C(Oc1ccc(S(=O)(=O)c2ccc(OC(=O)C(Cl)=C(Cl)Cl)cc2)cc1)C(Cl)=C(Cl)Cl` [CHEMBL212454, O=C(C(Cl)=C(Cl)Cl)Oc(cc1)ccc1S(c(cc1)ccc1OC(C(Cl)=C(Cl)Cl)=O)(=O)=O]: the concentration for half-maximal inhibition (IC50) is 0.9 µM.

Regarding `Cc1cccc2c3c(ccc12)C1=C(C(=O)C3=O)[C@@H](C)CO1` [CHEMBL227075, C[C@@H]1C(C(C(c2c3ccc4c(C)cccc24)=O)=O)=C3OC1], the IC50 is 3.05 µM.

Turning to `CC(C)(C)OC(=O)NCCc1nnc(S(=O)(=O)Cc2ccc(Cl)cc2Cl)o1` [CHEMBL259018, CC(C)(C)OC(NCCc(o1)nnc1S(Cc(ccc(Cl)c1)c1Cl)(=O)=O)=O], the IC50 was 4.22 µM.

Consider `CC(C)(C)c1ccc(S(=O)(=O)/C=C/C#N)cc1` [CHEMBL270299, CC(C)(C)c(cc1)ccc1S(/C=C/C#N)(=O)=O], for which the half-inhibitory concentration (IC50) is 0.84 µM.

As for `Sc1nnc(Nc2ccccc2)s1` [CHEMBL289356, Sc1nnc(Nc2ccccc2)s1], the IC50 was 0.39 µM.

Take `O=C(/C=C/c1ccc(O)c(O)c1)O[C@H](Cc1ccc(O)c(O)c1)C(=O)O` [CHEMBL324842, OC([C@@H](Cc(cc1)cc(O)c1O)OC(/C=C/c(cc1)cc(O)c1O)=O)=O]: the IC50 was 3.86 µM.

Take `C[n+]1c2cc(N)ccc2cc2ccc(N)cc21` [CHEMBL354349, C[n+](c1c2)c(cc(cc3)N)c3cc1ccc2N]: the IC50 is 3.46 µM.

For the compound `NC(=O)c1ccc2c(c1)C(=O)C(=O)N2Cc1ccc2ccccc2c1` [CHEMBL358279, NC(c(cc1)cc(C2=O)c1N(Cc1cc3ccccc3cc1)C2=O)=O], the IC50 is 0.245 µM.

In the case of `Cc1coc2c1C(=O)C(=O)c1c-2ccc2c(C)cccc12` [CHEMBL363535, Cc1coc(-c(ccc2c(C)cccc22)c2C2=O)c1C2=O], the IC50 is 0.7 µM.

With `O=C1C(=O)N(Cc2cc3ccccc3s2)c2c(Br)cccc21` [CHEMBL365134, O=C(c1cccc(Br)c1N1Cc2cc(cccc3)c3s2)C1=O], the IC50 was 0.98 µM.

In the case of `O=C1C(=O)N(Cc2ccc3ccccc3c2)c2ccc(I)cc21` [CHEMBL383725, O=C(c(cc(cc1)I)c1N1Cc2cc3ccccc3cc2)C1=O], the IC50 was 1.1 µM.

On to `O=C1C2CC=CCC2C(=O)N1SC(Cl)(Cl)Cl` (stereo not shown) [CHEMBL388676, O=C(C(CC=CC1)C1C1=O)N1SC(Cl)(Cl)Cl], for which the IC50 is 0.67 µM.

For the compound `Cc1ccc(S(=O)(=O)/C=C/C#N)cc1` [CHEMBL403183, Cc(cc1)ccc1S(/C=C/C#N)(=O)=O], the IC50 was 0.82 µM.

As to `Oc1ccc2ccccc2c1SSc1c(O)ccc2ccccc12` [CHEMBL472940, Oc(ccc1ccccc11)c1SSc(c1ccccc1cc1)c1O], the IC50 was 0.51 µM.

On to `CN(C)CCNc1nc2cc(O)ccc2c2c1C(=O)c1ccccc1-2` [CHEMBL488755, CN(C)CCNc1nc2cc(O)ccc2c(-c2c3cccc2)c1C3=O], for which the IC50 is 2.99 µM.

`O=[N+]([O-])c1ccc(Sc2cccc[n+]2[O-])c2nonc12` [CHEMBL505670, [O-][N+](c(c1nonc11)ccc1Sc(cccc1)[n+]1[O-])=O]: the IC50 is 0.1 µM.

For the compound `O=[N+]([O-])c1cnc(Sc2nnc(O)n2-c2ccc3c(c2)OCCO3)s1` [CHEMBL508280, [O-][N+](c1cnc(Sc(n2-c(cc3)cc4c3OCCO4)nnc2O)s1)=O], the IC50 was 2.05 µM.

`Nc1nnc(Sc2ncc([N+](=O)[O-])s2)s1` [CHEMBL510038, Nc1nnc(Sc2ncc([N+]([O-])=O)s2)s1]: the IC50 is 0.03 µM.

In the case of `CCOC(=O)c1c(N)sc(-c2ccccc2)c1C` [CHEMBL566136, CCOC(c1c(N)sc(-c2ccccc2)c1C)=O], the IC50 was 3.19 µM.

In the case of `CC(C)N(CCC(=O)c1ccc2ccccc2c1)Cc1ccccc1` [CHEMBL596674, CC(C)N(CCC(c1cc2ccccc2cc1)=O)Cc1ccccc1], the IC50 was 0.58 µM.

Regarding `O=C(O)c1ccc(SSc2ccc(C(=O)O)cn2)nc1` [CHEMBL1161936, OC(c(cc1)cnc1SSc(cc1)ncc1C(O)=O)=O], the IC50 was 0.24 µM.
